Patent publication US20240343855A1, “PROCESS FOR THE PREPARATION OF POLYCARBODIIMIDES WITH AZIRIDINE FUNCTIONS, WHICH MAY BE USED AS CROSSLINKING AGENT” (Stahl International B.V., priority 2021, published 2024)

Assays:
[1] = tested on: Bscl2-GFP reporter; assay type: cell-based, mouse; conditions: 24 h exposure; in absence and presence of S9
Source text: (§1) The genotoxicity can be measured by the ToxTracker® assay (Toxys, Leiden, The Netherlands) as further described herein. The ToxTracker® assay can be applied for pure substances or for compositions. The ToxTracker assay is a panel of six validated GFP-based mouse embryonic stem (mES) reporter cell lines that can be used to identify the biological reactivity and potential carcinogenic properties of newly developed compounds in a single test. ToxTracker is a mammalian stem cell-based assay that monitors activation of specific cellular signalling pathways for detection of the biological reactivity of compounds. In contrast to the cancer-derived cell lines that are currently used for in vitro genotoxicity testing, stem cells are genetically stable and proficient in all cellular pathways required for accurate detection of potentially carcinogenic properties of compounds. Extensive whole-genome transcription profiling has led to identification of a panel of biomarker genes that are preferentially activated upon exposure to different classes of carcinogens and toxicants. […] A compound is considered not genotoxic when it induces a smaller than 2-fold increase in GFP expression in any of the reporters measured by the ToxTracker® assay (Toxys, Leiden, The Netherlands).
(§2) The genotoxicity was measured by the ToxTracker® assay (Toxys, Leiden, The Netherlands), which can be applied for pure substances or for compositions. […]
(§3) The six independent mES reporter cell lines were seeded in gelatin-coated 96-well cell culture plates in 200 μl mES cell medium (50.000 cells per well). […] Induction of the GFP reporters was determined after 24 h exposure using a flow cytometer. Only GFP expression in intact single cells was determined. Mean GFP fluorescence was measured and used to calculate GFP reporter induction compared to a vehicle control treatment. Cytotoxicity was estimated by cell count after 24 h exposure using a flow cytometer and was expressed as percentage of intact cells after 24 h exposure compared to vehicle exposed controls. […]

[2] = tested on: Btg2-GFP reporter; assay type: cell-based, mouse; conditions: 24 h exposure; in absence and presence of S9
Source text: as §1, §2, §3

[3] = tested on: Rtkn-GFP reporter; assay type: cell-based, mouse; conditions: 24 h exposure; in absence and presence of S9
Source text: as §1, §2, §3

[4] = tested on: GFP-based mouse embryonic stem (mES) reporter cell lines; conditions: ToxTracker; positive = at least 2 fold increase in GFP expression in any reporter
Source text: The genotoxicity can be measured by the ToxTracker® assay (Toxys, Leiden, The Netherlands) as further described herein. The ToxTracker® assay can be applied for pure substances or for compositions. The ToxTracker assay is a panel of six validated GFP-based mouse embryonic stem (mES) reporter cell lines that can be used to identify the biological reactivity and potential carcinogenic properties of newly developed compounds in a single test. ToxTracker is a mammalian stem cell-based assay that monitors activation of specific cellular signalling pathways for detection of the biological reactivity of compounds. […] A compound is considered not genotoxic when it induces a smaller than 2-fold increase in GFP expression in any of the reporters measured by the ToxTracker® assay (Toxys, Leiden, The Netherlands).
as §2
as §3, with “treatment.” for “treatment. Cytotoxicity was estimated by cell count after 24 h exposure using a flow cytometer and was expressed as percentage of intact cells after 24 h exposure compared to vehicle exposed controls.”

## O=C(CCN1CC1)OCC(CO)(COC(=O)CCN1CC1)COC(=O)CCN1CC1 [CL-427, 1-Aziridinepropanoic acid, 1,1′-[2-[[3-(1-aziridinyl)-1-oxopropoxy]methyl]-2-(hydroxymethyl)-1,3-propanediyl]ester]
[1]
  activation of the Bscl2-GFP reporter: activated
[2]
  activation of the Btg2-GFP reporter: activated
[3]
  activation of the Rtkn-GFP reporter: activated
[4]
  genotoxicity conclusion: considered genotoxic
